Test results as given in publication PMC4558462, “A new small molecule inhibitor of soluble guanylate cyclase” (Bioorganic & Medicinal Chemistry, 2015).
Entries after “also recorded” stand apart in the source; their conditions may differ. Like-named read-outs stand apart in the source and are kept apart here.

What was measured:
sGCcat = target: T1, sGCcat (Homo sapiens, UniProt Q02108+Q02153); assay: SPR binding to catalytic domain of sGC; details: for sGCcat (SPR) binding norm. resp. (RU): Biacore T200, 25 °C; for binding to sGCcat (in words): discussion of Table 1
T1 construct: a smaller construct of the catalytic domain (sGCcat)
T1 sequence (Q02108 481-608 limits assumed): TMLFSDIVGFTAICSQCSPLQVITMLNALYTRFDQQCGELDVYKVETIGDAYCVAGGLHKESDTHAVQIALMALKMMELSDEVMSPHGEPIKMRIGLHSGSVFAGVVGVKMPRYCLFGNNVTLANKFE
T1 sequence (Q02153 421-554 limits assumed): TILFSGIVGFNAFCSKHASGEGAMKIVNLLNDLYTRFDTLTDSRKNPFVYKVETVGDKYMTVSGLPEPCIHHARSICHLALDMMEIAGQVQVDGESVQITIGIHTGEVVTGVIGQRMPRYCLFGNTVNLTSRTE
Protocol: We have previously described a surface plasmon resonance-based assay for the detection of binding of small molecules to full-length sGC and a smaller construct of the catalytic domain (sGCcat).[24] This assay was used to measure the binding of the compounds to sGCcat.[24] […] The position of the hydroxyl group can be changed whilst retaining binding strength and activity.
Surface plasmon resonance (SPR) experiments were performed with a Biacore T200 instrument at 25 °C. Data processing and analysis were performed using BIAevaluation software and Scrubber2. All sensorgrams were double referenced by subtracting the response in a reference flowcell and a blank sample. Materials and methods used were the same as previously published.[24]

purified bovine lung sGC = target: T2, purified bovine lung sGC (Bos taurus, UniProt P16068+P19687); assay: Soluble guanylate cyclase activity assay (cGMP radioimmunoassay); assay type: biochemical; details: for inhibition of sGC enzyme activity (in words): discussion of Table 1
T2 construct: screened at 100 μM against purified bovine lung sGC; purchased Enzo lifesciences ALX-202-039-C005; host or cells: bovine lung
T2 sequence (P19687 1-691): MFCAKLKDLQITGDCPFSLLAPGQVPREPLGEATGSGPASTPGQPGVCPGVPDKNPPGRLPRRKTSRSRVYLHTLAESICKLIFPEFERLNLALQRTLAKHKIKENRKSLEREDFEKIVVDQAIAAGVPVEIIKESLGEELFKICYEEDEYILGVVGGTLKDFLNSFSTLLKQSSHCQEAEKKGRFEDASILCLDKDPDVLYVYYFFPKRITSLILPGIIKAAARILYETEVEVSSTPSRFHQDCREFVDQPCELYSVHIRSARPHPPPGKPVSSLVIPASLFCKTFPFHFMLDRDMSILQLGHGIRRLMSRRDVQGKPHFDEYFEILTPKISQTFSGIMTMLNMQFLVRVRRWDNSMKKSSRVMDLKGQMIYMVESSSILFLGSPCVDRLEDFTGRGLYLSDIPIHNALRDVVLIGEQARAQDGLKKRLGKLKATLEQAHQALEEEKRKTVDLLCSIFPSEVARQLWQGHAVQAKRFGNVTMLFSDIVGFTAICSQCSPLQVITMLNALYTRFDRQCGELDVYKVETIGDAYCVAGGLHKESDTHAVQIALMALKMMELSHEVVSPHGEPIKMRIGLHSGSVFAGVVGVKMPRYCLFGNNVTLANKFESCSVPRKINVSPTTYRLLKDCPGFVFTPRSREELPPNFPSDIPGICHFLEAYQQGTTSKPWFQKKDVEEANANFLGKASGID
T2 sequence (P16068 1-619): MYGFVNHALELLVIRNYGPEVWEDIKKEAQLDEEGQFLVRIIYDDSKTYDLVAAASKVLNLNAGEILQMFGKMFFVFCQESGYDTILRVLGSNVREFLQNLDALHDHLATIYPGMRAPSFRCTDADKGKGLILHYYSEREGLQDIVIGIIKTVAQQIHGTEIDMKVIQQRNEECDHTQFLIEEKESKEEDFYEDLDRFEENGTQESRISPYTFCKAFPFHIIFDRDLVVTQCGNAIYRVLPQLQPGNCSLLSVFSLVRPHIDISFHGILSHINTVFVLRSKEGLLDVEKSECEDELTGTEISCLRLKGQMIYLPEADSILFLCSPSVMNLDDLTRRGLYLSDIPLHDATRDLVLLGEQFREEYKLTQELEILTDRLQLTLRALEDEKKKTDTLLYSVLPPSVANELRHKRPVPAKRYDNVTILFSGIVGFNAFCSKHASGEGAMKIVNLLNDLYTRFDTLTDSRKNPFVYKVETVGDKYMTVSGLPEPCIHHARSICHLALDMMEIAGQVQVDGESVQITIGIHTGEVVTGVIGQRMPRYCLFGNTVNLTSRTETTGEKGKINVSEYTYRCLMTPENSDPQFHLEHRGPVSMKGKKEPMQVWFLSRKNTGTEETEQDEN
Protocol: Virtual screening was performed by similarity searches using MACCS fingerprints at 85% and 75% Tanimoto of commercial libraries and the selected compounds were screened at 100 μM against purified bovine lung sGC using diethylamine NONOate (30 nM) as the NO donor. Enzyme activity was determined by measuring cGMP production using a standard cGMP [^3H] radioimmunoassay.[21,22]
[…] Compounds were added at 100 μM prior to adding the NO donor DEA/NO (30 nM) or clamped NO concentrations. cGMP generation was allowed to proceed for two minutes, after which aliquots were withdrawn and inactivated by boiling in 50 mM Tris, 4 mM EDTA buffer. cGMP formation was measured by a standard radioimmunoassay.

[1] = virtual screening hits, 100 μM compound, diethylamine NONOate 30 nM as NO donor, read-out: % inhibition of sGC activity at 100 μM compound
[2] = synthesised analogues, 100 μM, read-out: sGC activity% inhibition at 100 μM
[3] = read-out: % inhibition of sGC activity at 100 μM compound

inhibition at 100 µM (purified bovine lung sGC; [1]) [%] | Molecule | sGCcat (SPR) binding norm. resp. (RU) (sGCcat) | binding to sGCcat (in words) (sGCcat) | inhibition of sGC enzyme activity (in words) (purified bovine lung sGC) | inhibition at 100 µM (purified bovine lung sGC; [2]) [%] | inhibition at 100 µM (purified bovine lung sGC; [3]) [%]
– | Oc1ccc(Nc2nc3ccccc3nc2Nc2ccc(O)cc2)cc1 [Compound 20, 4,4′-(Quinoxaline-2,3-diylbis(azanediyl))diphenol] | 12.4 ± 0.1 | higher binding; also recorded: only a small decrease in binding | no significant inhibition | – | –
51 | Clc1cccc(Nc2ncnc3ccccc23)c1Cl [Compound 5] | – | – | – | – | –
– | CC(=O)Nc1cccc(Nc2nc3ccc([N+](=O)[O-])cc3nc2Nc2cccc(NC(C)=O)c2)c1 [Compound 18, N,N′-(((6-Nitroquinoxaline-2,3-diyl)bis(azanediyl))bis(3,1-phenylene))diacetamide] | 3.0 ± 1.0 | reduced its binding strength | biochemically inactive | – | –
– | COc1ccc(Nc2nc3ccc([N+](=O)[O-])cc3nc2Nc2ccc(OC)cc2)cc1 [Compound 15, N2,N3-Bis(4-methoxyphenyl)-6-nitroquinoxaline-2,3-diamine] | 1.0 ± 0.3 | reduced its binding strength | biochemically inactive | – | –
– | O=[N+]([O-])c1ccc2nc(Nc3ccc(F)cc3)c(Nc3ccc(F)cc3)nc2c1 [Compound 19, N2,N3-Bis(4-fluorophenyl)-6-nitroquinoxaline-2,3-diamine] | 1.9 ± 1.8 | reduced its binding strength | biochemically inactive | – | –
– | Oc1cccc(Nc2nc3ccc(Cl)cc3nc2Nc2cccc(O)c2)c1 [Compound 26, 3,3′-((6-Chloroquinoxaline-2,3-diyl)bis(azanediyl))diphenol] | 9.0 ± 0.4 | bind to the receptor | do not inhibit the enzyme activity | – | –
– | 6,7-Bis((3-hydroxyphenyl)amino)-N-methyl-2-naphthamide [Compound 28] | 9.6 ± 0.3 | higher binding | – | – | –
– | Oc1ccc(Nc2nc3ccc(C(F)(F)F)cc3nc2Nc2ccc(O)cc2)cc1 [Compound 21, 4,4′-((6-(Trifluoromethyl)quinoxaline-2,3-diyl)bis(azanediyl))diphenol] | 6.4 ± 0.5 | higher binding | – | 44.4 | –
– | CC(=O)Nc1ccc(Nc2nc3ccc([N+](=O)[O-])cc3nc2Nc2ccc(NC(C)=O)cc2)cc1 [Compound 17, N,N′-(((6-Nitroquinoxaline-2,3-diyl)bis(azanediyl))bis(4,1-phenylene))diacetamide] | 0.8 ± 0.3 | reduced its binding strength | biochemically inactive | – | –
– | O=[N+]([O-])c1ccc2nc(Nc3ccccc3)c(Nc3ccccc3)nc2c1 [Compound 16, 6-Nitro-N2,N3-diphenylquinoxaline-2,3-diamine] | 2.6 ± 0.2 | – | – | – | –
– | N#Cc1ccc2nc(Nc3cccc(O)c3)c(Nc3cccc(O)c3)nc2c1 [Compound 24, 2,3-Bis((3-hydroxyphenyl)amino)quinoxaline-6-carbonitrile] | 10.5 ± 0.5 | bind to the receptor | do not inhibit the enzyme activity | – | –
– | Oc1cccc(Nc2nc3ccc(C(F)(F)F)cc3nc2Nc2cccc(O)c2)c1 [Compound 22, 3,3′-((6-(Trifluoromethyl)quinoxaline-2,3-diyl)bis(azanediyl))diphenol] | 3.0 ± 0.5 | – | – | 21.1 | –
– | N#Cc1ccc2nc(Nc3ccc(O)cc3)c(Nc3ccc(O)cc3)nc2c1 [Compound 23, 2,3-Bis((4-hydroxyphenyl)amino)quinoxaline-6-carbonitrile] | 4.5 ± 2 | bind to the receptor | do not inhibit the enzyme activity | – | –
90 | Fc1cccc(Nc2nc3nonc3nc2Nc2cccc(F)c2)c1 [Compound 7] | – | – | – | – | –
– | O=[N+]([O-])c1ccccc1Nc1nc2nonc2nc1Nc1ccccc1[N+](=O)[O-] [Compound 8] | – | – | – | – | 90
– | CC(=O)c1ccc(Nc2nc3cc([N+](=O)[O-])c([N+](=O)[O-])cc3nc2Nc2cccc(C(C)=O)c2)cc1 [Compound 9] | – | – | – | – | 73
– | Oc1ccc(Nc2nc3ccc(Cl)cc3nc2Nc2ccc(O)cc2)cc1 [Compound 25, 4,4′-((6-Chloroquinoxaline-2,3-diyl)bis(azanediyl))diphenol] | 9.7 ± 0.5 | bind to the receptor | do not inhibit the enzyme activity | – | –
– | CNC(=O)c1ccc2nc(Nc3ccc(O)cc3)c(Nc3ccc(O)cc3)nc2c1 [Compound 27, 2,3-Bis((4-hydroxyphenyl)amino)-N-methylquinoxaline-6-carboxamide] | 1.1 ± 0.3 | – | – | – | –
– | O=[N+]([O-])c1ccc2nc(Nc3cccc(O)c3)c(Nc3cccc(O)c3)nc2c1 [Compound 14, 3,3′-((6-Nitroquinoxaline-2,3-diyl)bis(azanediyl))diphenol] | 11.6 ± 0.8 | higher binding | – | 41.4 | –
– | Nc1ccc2nc(Nc3ccc(O)cc3)c(Nc3ccc(O)cc3)nc2c1 [Compound 29, 4,4′-((6-Aminoquinoxaline-2,3-diyl)bis(azanediyl))diphenol] | 9.9 ± 0.2 | higher binding; also recorded: bind to the receptor | do not inhibit the enzyme activity | – | –
51 | N#Cc1cc(Nc2cccc(Cl)c2)c(Nc2cccc(Cl)c2)cc1C#N [Compound 6] | – | – | – | – | –
